Common to all, as to type: cell-based
One assay concerns S. uberis ATCC 19436. Kind of assay: MIC by broth microdilution, S. uberis. The following applies: Streptococcus uberis, read-out: S. uberis ATCC 19436 MIC. In a few lines: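 This broth microdilution assay used S. uberis ATCC 19436 in Todd Hewitt Broth, with zinc sulphate heptahydrate added where required to a final 50 μM. Inhibitor concentration ranges came from two-fold serial dilutions in 96-well flat bottom plates at 200 μl. Approximately 5×10^5 cfu/mL cells were incubated for 24 h at 37° C. and 200 rpm. Wells were then read at OD600 on a Varioskan Flash reader.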
(Broth dilution looks for growth in wells or tubes with falling amounts of substance.)

In a further assay the test system is S. aureus ATCC 6538. Kind of assay: MIC by broth microdilution, S. aureus. The following applies: Staphylococcus aureus, read-out: S. aureus ATCC 6538 MIC. In outline:
(§1)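 Two-fold serial dilutions were tested in broth at ~5×10^5 cfu/mL: S. aureus in TSB or CAMHB, E. coli in LB or CAMHB, with 50 μM zinc sulphate added as required. After 24 h at 37° C, 200 rpm, MIC was the lowest concentration showing no growth by OD600.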

The next assay deals with E. coli ATCC 10596. In words: MIC by broth microdilution, E. coli. The following applies: Escherichia coli, read-out: E. coli ATCC 10536 MIC. In a few lines:
as §1

Where [1] appears, read: ATCC 10536 / ATCC 10596, No Zinc.
Setting [2] is: ATCC 10536 / ATCC 10596, Zinc (50 μM).

What is called MIC is the lowest concentration that inhibits growth of the organism.

In brackets after ≈: the same amount, converted by molar mass. Read-outs that look alike come from different tables or passages of the source.

For `CCCNCc1ccc2cccc(NS(=O)(=O)c3ccc(C(F)(F)F)cc3)c2n1` [ZDR026, N-(2-((Propylamino)methyl)quinolin-8-yl)-4-(trifluoromethyl)-benzenesulfonamide], the MIC with S. uberis ATCC 19436 (ATCC19436, No Zinc) is 64 µg/mL (≈ 151 µM); in the assay on S. uberis ATCC 19436 (ATCC19436, Zinc (50 μM)) it was 0.125 µg/mL (≈ 0.295 µM); in the assay with S. aureus ATCC 6538 (ATCC6538, No Zinc), 32 µg/mL (≈ 75.6 µM); with S. aureus ATCC 6538 (ATCC6538, Zinc (50 μM)), over 256 µg/mL; with E. coli ATCC 10596 (setting [1]) it was over 256 µg/mL; in the assay with E. coli ATCC 10596 (setting [2]) it was over 256 µg/mL.
`Cc1ccc2cccc(NS(=O)(=O)c3ccc(C(F)(F)F)cc3)c2n1` [ZDR018, N-(2-Methylquinolin-8-yl)-4-(trifluoromethyl)benzenesulfonamide]: the MIC with S. uberis ATCC 19436 (ATCC19436, No Zinc) was over 256 µg/mL; in the assay with S. uberis ATCC 19436 (ATCC19436, Zinc (50 μM)), 0.125 µg/mL (≈ 0.341 µM); with S. aureus ATCC 6538 (ATCC6538, No Zinc), over 256 µg/mL; with S. aureus ATCC 6538 (ATCC6538, Zinc (50 μM)), over 256 µg/mL; in the assay with E. coli ATCC 10596 (setting [1]) it was over 256 µg/mL; in the assay with E. coli ATCC 10596 (setting [2]) it was over 256 µg/mL.
For `CN(C)Cc1ccc2cccc(NS(=O)(=O)c3ccccc3C#N)c2n1` [ZDR077, N-(2-((Dimethylamino)methyl)quinolin-8-yl)-2-cyanobenzenesulfonamide], the MIC with S. uberis ATCC 19436 (ATCC19436, No Zinc) was over 256 µg/mL; in the assay on S. uberis ATCC 19436 (ATCC19436, Zinc (50 μM)), 1 µg/mL (≈ 2.73 µM); in the assay with S. aureus ATCC 6538 (ATCC6538, No Zinc), over 256 µg/mL; in the assay on S. aureus ATCC 6538 (ATCC6538, Zinc (50 μM)), over 256 µg/mL; in the assay with E. coli ATCC 10596 (setting [1]), over 256 µg/mL; in the assay with E. coli ATCC 10596 (setting [2]), over 256 µg/mL.
Turning to `O=S(=O)(Nc1cccc2ccc(CNCC(O)CO)nc12)c1ccc(C(F)(F)F)cc1` (stereo not drawn) [ZDR093, N-(2-(((2,3-Dihydroxypropyl)amino)methyl)quinolin-8-yl)-4-(trifluoromethyl)benzenesulfonamide], the MIC is 64 µg/mL (≈ 141 µM) in the assay with S. uberis ATCC 19436 (ATCC19436, No Zinc); 16 µg/mL (≈ 35.1 µM) in the assay with S. uberis ATCC 19436 (ATCC19436, Zinc (50 μM)); 64 µg/mL (≈ 141 µM) with S. aureus ATCC 6538 (ATCC6538, No Zinc); 128 µg/mL (≈ 281 µM) with S. aureus ATCC 6538 (ATCC6538, Zinc (50 μM)); 256 µg/mL (≈ 562 µM) with E. coli ATCC 10596 (setting [1]); over 256 µg/mL in the assay on E. coli ATCC 10596 (setting [2]).
Take `COC(=O)c1ccc(S(=O)(=O)Nc2cccc3ccc(CN(C)C)nc23)cc1` [ZDR069, Methyl 4-(N-(2-((dimethylamino)methyl)quinolin-8-yl)sulfamoyl)benzoate]: the MIC with S. uberis ATCC 19436 (ATCC19436, No Zinc) was over 256 µg/mL; with S. uberis ATCC 19436 (ATCC19436, Zinc (50 μM)) it was 0.25 µg/mL (≈ 0.626 µM); in the assay on S. aureus ATCC 6538 (ATCC6538, No Zinc), 256 µg/mL (≈ 641 µM); with S. aureus ATCC 6538 (ATCC6538, Zinc (50 μM)) it was over 256 µg/mL; in the assay on E. coli ATCC 10596 (setting [1]), over 256 µg/mL; in the assay on E. coli ATCC 10596 (setting [2]) it was over 256 µg/mL.
With `CN(C)Cc1ccc2cccc(NS(=O)(=O)c3ccc(Cl)nc3)c2n1` [ZDR322, 6-Chloro-N-(2-((dimethylamino)methyl)quinolin-8-yl)pyridine-3-sulfonamide], the MIC in the assay with S. uberis ATCC 19436 (ATCC19436, No Zinc) was over 256 µg/mL; in the assay on S. uberis ATCC 19436 (ATCC19436, Zinc (50 μM)), 0.25 µg/mL (≈ 0.663 µM); in the assay with S. aureus ATCC 6538 (ATCC6538, No Zinc) it was 128 µg/mL (≈ 340 µM); in the assay on S. aureus ATCC 6538 (ATCC6538, Zinc (50 μM)), over 256 µg/mL; in the assay with E. coli ATCC 10596 (setting [1]), over 256 µg/mL; in the assay with E. coli ATCC 10596 (setting [2]), over 256 µg/mL.
As for `O=S(=O)(Nc1cccc2ccc(CNCCOCCO)nc12)c1ccc(C(F)(F)F)cc1` [ZDR129, N-(2-(((2-(2-Hydroxyethoxy)ethyl)amino)methyl)quinolin-8-yl)-4-(trifluoromethyl)benzenesulfonamide], the MIC in the assay on S. uberis ATCC 19436 (ATCC19436, No Zinc) was found to be 64 µg/mL (≈ 136 µM); in the assay on S. uberis ATCC 19436 (ATCC19436, Zinc (50 μM)), 1 µg/mL (≈ 2.13 µM); in the assay on S. aureus ATCC 6538 (ATCC6538, No Zinc), 32 µg/mL (≈ 68.2 µM); with S. aureus ATCC 6538 (ATCC6538, Zinc (50 μM)) it was 32 µg/mL (≈ 68.2 µM); in the assay with E. coli ATCC 10596 (setting [1]), 256 µg/mL (≈ 545 µM); in the assay on E. coli ATCC 10596 (setting [2]) it was 256 µg/mL (≈ 545 µM).
Take `CN(C)Cc1ccc2cccc(NS(=O)(=O)c3ccc(C=O)cc3)c2n1` [ZDR324, N-(2-((Dimethylamino)methyl)quinolin-8-yl)-4-formylbenzenesulfonamide]: the MIC in the assay on S. uberis ATCC 19436 (ATCC19436, No Zinc) is 256 µg/mL (≈ 693 µM); in the assay with S. uberis ATCC 19436 (ATCC19436, Zinc (50 μM)), 1 µg/mL (≈ 2.71 µM); with S. aureus ATCC 6538 (ATCC6538, No Zinc) it was 256 µg/mL (≈ 693 µM); in the assay with S. aureus ATCC 6538 (ATCC6538, Zinc (50 μM)), 256 µg/mL (≈ 693 µM); with E. coli ATCC 10596 (setting [1]), over 256 µg/mL; in the assay with E. coli ATCC 10596 (setting [2]), over 256 µg/mL.
`O=S(=O)(Nc1cccc2ccc(CNCc3cccs3)nc12)c1ccc(C(F)(F)F)cc1` [ZDR107, N-(2-(((Thiophen-2-ylmethyl)amino)methyl)quinolin-8-yl)-4-(trifluoromethyl)benzenesulfonamide]: the MIC in the assay on S. uberis ATCC 19436 (ATCC19436, No Zinc) is 64 µg/mL (≈ 134 µM); with S. uberis ATCC 19436 (ATCC19436, Zinc (50 μM)), 0.125 µg/mL (≈ 0.262 µM); in the assay with S. aureus ATCC 6538 (ATCC6538, No Zinc) it was over 256 µg/mL; in the assay on S. aureus ATCC 6538 (ATCC6538, Zinc (50 μM)), 64 µg/mL (≈ 134 µM); in the assay on E. coli ATCC 10596 (setting [1]), over 256 µg/mL; in the assay on E. coli ATCC 10596 (setting [2]) it was over 256 µg/mL.
Regarding `CN(C)Cc1ccc2cccc(NS(=O)(=O)c3ccccc3OC(F)(F)F)c2n1` [ZDR191, N-(2-((Dimethylamino)methyl)quinolin-8-yl)-2-(trifluoromethoxy)benzenesulfonamide], the MIC was 256 µg/mL (≈ 602 µM) in the assay with S. uberis ATCC 19436 (ATCC19436, No Zinc); 0.125 µg/mL (≈ 0.294 µM) in the assay on S. uberis ATCC 19436 (ATCC19436, Zinc (50 μM)); over 256 µg/mL in the assay on S. aureus ATCC 6538 (ATCC6538, No Zinc); over 256 µg/mL in the assay on S. aureus ATCC 6538 (ATCC6538, Zinc (50 μM)); over 256 µg/mL in the assay with E. coli ATCC 10596 (setting [1]); over 256 µg/mL with E. coli ATCC 10596 (setting [2]).

Source of the values: patent US11691949B2, “Quinoline sulfonamide compounds and their use as antibacterial agents” (OTAGO INNOVATION LIMITED, priority 2017, dated 2023).
